Measured values from the supplement of paper PMC8558673.

System: Escherichia coli K12 ER1821
Assay: log10 surviving fraction N/N0 (CFU/mL relative to untreated control) (log_unit); higher = more bacterial survival (less inactivation)
Procedure: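 E. coli K12 ER1821 (mid-exponential, washed in 250 mM sucrose) was exposed to antibiotic at MIC, 3x, 10x or 30x MIC, given a single 1-ms pulse of 0-20 kV/cm, and incubated with the antibiotic at room temperature for <=1 min, 60 min, 160 min or 24 h before dilution. Survivors were counted as CFU by drop plating after overnight growth at 37 C; the value is log10(N/N0) relative to the untreated control (no antibiotic, no pulse), with 3 replicates on different days.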

CC1(C)S[C@@H]2[C@H](NC(=O)[C@H](N)c3ccccc3)C(=O)N2[C@H]1C(=O)O [ampicillin]
log10 surviving fraction N/N0
Conditions	antibiotic concentration 30 ug/mL	antibiotic concentration 90 ug/mL	antibiotic concentration 300 ug/mL	antibiotic concentration 900 ug/mL
electric pulse amplitude (kV/cm, single 1-ms pulse): 0, post-pulse incubation time: 24 h	-0.726	-1.73	-2.56	-2.68
electric pulse amplitude (kV/cm, single 1-ms pulse): 0, post-pulse incubation time: 60 min	-0.0801	-0.135	-1.02	-1.65
electric pulse amplitude (kV/cm, single 1-ms pulse): 0, post-pulse incubation time: 160 min	-0.551	-1.08	-1.68	-2.17
electric pulse amplitude (kV/cm, single 1-ms pulse): 0, post-pulse incubation time: <=1 min	-0.0839	-0.253	-0.17	-0.995
electric pulse amplitude (kV/cm, single 1-ms pulse): 5, post-pulse incubation time: 24 h	-1.01	-1.77	-2.86	-3.4
electric pulse amplitude (kV/cm, single 1-ms pulse): 5, post-pulse incubation time: 60 min	-0.411	-0.494	-1.56	-2.27
electric pulse amplitude (kV/cm, single 1-ms pulse): 5, post-pulse incubation time: 160 min	-0.803	-1.47	-2.27	-2.86
electric pulse amplitude (kV/cm, single 1-ms pulse): 5, post-pulse incubation time: <=1 min	-0.112	-0.305	-0.412	-1.08
electric pulse amplitude (kV/cm, single 1-ms pulse): 10, post-pulse incubation time: 24 h	-1.62	-2.91	-4.063	-4.5
electric pulse amplitude (kV/cm, single 1-ms pulse): 10, post-pulse incubation time: 60 min	-1.07	-1.59	-2.43	-2.817
electric pulse amplitude (kV/cm, single 1-ms pulse): 10, post-pulse incubation time: 160 min	-1.64	-2.22	-2.96	-3.31
electric pulse amplitude (kV/cm, single 1-ms pulse): 10, post-pulse incubation time: <=1 min	-0.474	-0.722	-1.11	-1.27
electric pulse amplitude (kV/cm, single 1-ms pulse): 15, post-pulse incubation time: 24 h	-2.66	-3.79	-4.45	-4.93
electric pulse amplitude (kV/cm, single 1-ms pulse): 15, post-pulse incubation time: 60 min	-1.88	-2.12	-2.9	-3.28
electric pulse amplitude (kV/cm, single 1-ms pulse): 15, post-pulse incubation time: 160 min	-2.2	-2.74	-3.3	-3.8
electric pulse amplitude (kV/cm, single 1-ms pulse): 15, post-pulse incubation time: <=1 min	-1.1	-1.29	-1.34	-1.99
electric pulse amplitude (kV/cm, single 1-ms pulse): 20, post-pulse incubation time: 24 h	-3.57	-4.39	-4.6	-4.96
electric pulse amplitude (kV/cm, single 1-ms pulse): 20, post-pulse incubation time: 60 min	-2.46	-2.71	-3.42	-3.64
electric pulse amplitude (kV/cm, single 1-ms pulse): 20, post-pulse incubation time: 160 min	-2.65	-3.23	-3.77	-4.02
electric pulse amplitude (kV/cm, single 1-ms pulse): 20, post-pulse incubation time: <=1 min	-1.34	-1.45	-1.85	-2.58

O=C(O)c1cn(C2CC2)c2cc(N3CCNCC3)c(F)cc2c1=O [ciprofloxacin]
log10 surviving fraction N/N0
Conditions	antibiotic concentration 0.025 ug/mL	antibiotic concentration 0.075 ug/mL	antibiotic concentration 0.25 ug/mL	antibiotic concentration 0.75 ug/mL
electric pulse amplitude (kV/cm, single 1-ms pulse): 0, post-pulse incubation time: 24 h	-1.23	-2.32	-3.37	-2.76
electric pulse amplitude (kV/cm, single 1-ms pulse): 0, post-pulse incubation time: 60 min	-0.187	-0.389	-1.04	-1.39
electric pulse amplitude (kV/cm, single 1-ms pulse): 0, post-pulse incubation time: 160 min	-0.358	-0.825	-1.78	-2.04
electric pulse amplitude (kV/cm, single 1-ms pulse): 0, post-pulse incubation time: <=1 min	-0.0971	-0.218	-0.361	-0.897
electric pulse amplitude (kV/cm, single 1-ms pulse): 5, post-pulse incubation time: 24 h	-1.2	-2.36	-3.46	-2.88
electric pulse amplitude (kV/cm, single 1-ms pulse): 5, post-pulse incubation time: 60 min	-0.336	-0.615	-1.11	-1.47
electric pulse amplitude (kV/cm, single 1-ms pulse): 5, post-pulse incubation time: 160 min	-0.532	-0.993	-1.87	-2.11
electric pulse amplitude (kV/cm, single 1-ms pulse): 5, post-pulse incubation time: <=1 min	-0.217	-0.161	-0.535	-1.04
electric pulse amplitude (kV/cm, single 1-ms pulse): 10, post-pulse incubation time: 24 h	-1.78	-2.97	-3.49	-3.36
electric pulse amplitude (kV/cm, single 1-ms pulse): 10, post-pulse incubation time: 60 min	-0.593	-1.29	-1.69	-2.16
electric pulse amplitude (kV/cm, single 1-ms pulse): 10, post-pulse incubation time: 160 min	-1.04	-1.73	-2.52	-2.86
electric pulse amplitude (kV/cm, single 1-ms pulse): 10, post-pulse incubation time: <=1 min	-0.507	-0.67	-0.989	-1.83
electric pulse amplitude (kV/cm, single 1-ms pulse): 15, post-pulse incubation time: 24 h	-2.35	-3.37	-3.85	-4.09
electric pulse amplitude (kV/cm, single 1-ms pulse): 15, post-pulse incubation time: 60 min	-1.41	-1.81	-2.34	-2.77
electric pulse amplitude (kV/cm, single 1-ms pulse): 15, post-pulse incubation time: 160 min	-1.62	-2.31	-3.12	-3.27
electric pulse amplitude (kV/cm, single 1-ms pulse): 15, post-pulse incubation time: <=1 min	-1.25	-1.2	-1.55	-2.28
electric pulse amplitude (kV/cm, single 1-ms pulse): 20, post-pulse incubation time: 24 h	-3.05	-3.76	-4.37	-4.6
electric pulse amplitude (kV/cm, single 1-ms pulse): 20, post-pulse incubation time: 60 min	-1.77	-2.25	-2.75	-3.05
electric pulse amplitude (kV/cm, single 1-ms pulse): 20, post-pulse incubation time: 160 min	-1.92	-2.73	-3.31	-3.37
electric pulse amplitude (kV/cm, single 1-ms pulse): 20, post-pulse incubation time: <=1 min	-1.65	-1.77	-2.05	-2.91

CN(C)[C@@H]1C(O)=C(C(N)=O)C(=O)[C@@]2(O)C(O)=C3C(=O)c4c(O)cccc4[C@@](C)(O)[C@H]3C[C@@H]12 [tetracycline]
log10 surviving fraction N/N0
Conditions	antibiotic concentration 2 ug/mL	antibiotic concentration 6 ug/mL	antibiotic concentration 20 ug/mL	antibiotic concentration 60 ug/mL
electric pulse amplitude (kV/cm, single 1-ms pulse): 0, post-pulse incubation time: 24 h	-0.417	-0.475	-0.573	-1.45
electric pulse amplitude (kV/cm, single 1-ms pulse): 0, post-pulse incubation time: 60 min	-0.108	-0.125	-0.116	-0.361
electric pulse amplitude (kV/cm, single 1-ms pulse): 0, post-pulse incubation time: 160 min	-0.0521	-0.172	-0.241	-0.461
electric pulse amplitude (kV/cm, single 1-ms pulse): 0, post-pulse incubation time: <=1 min	-0.0586	-0.2	-0.136	-0.26
electric pulse amplitude (kV/cm, single 1-ms pulse): 5, post-pulse incubation time: 24 h	-0.436	-0.518	-0.877	-2.42
electric pulse amplitude (kV/cm, single 1-ms pulse): 5, post-pulse incubation time: 60 min	-0.307	-0.307	-0.303	-0.636
electric pulse amplitude (kV/cm, single 1-ms pulse): 5, post-pulse incubation time: 160 min	-0.235	-0.282	-0.345	-0.84
electric pulse amplitude (kV/cm, single 1-ms pulse): 5, post-pulse incubation time: <=1 min	-0.0914	-0.264	-0.276	-0.618
electric pulse amplitude (kV/cm, single 1-ms pulse): 10, post-pulse incubation time: 24 h	-0.65	-0.762	-1.8	-3.46
electric pulse amplitude (kV/cm, single 1-ms pulse): 10, post-pulse incubation time: 60 min	-0.769	-0.825	-1.02	-1.72
electric pulse amplitude (kV/cm, single 1-ms pulse): 10, post-pulse incubation time: 160 min	-0.827	-0.925	-1.11	-2.1
electric pulse amplitude (kV/cm, single 1-ms pulse): 10, post-pulse incubation time: <=1 min	-0.389	-0.48	-0.656	-1.39
electric pulse amplitude (kV/cm, single 1-ms pulse): 15, post-pulse incubation time: 24 h	-1	-1.48	-2.97	-4.05
electric pulse amplitude (kV/cm, single 1-ms pulse): 15, post-pulse incubation time: 60 min	-1.45	-1.53	-1.82	-2.48
electric pulse amplitude (kV/cm, single 1-ms pulse): 15, post-pulse incubation time: 160 min	-1.46	-1.63	-1.99	-2.74
electric pulse amplitude (kV/cm, single 1-ms pulse): 15, post-pulse incubation time: <=1 min	-0.764	-0.971	-1.23	-2.06
electric pulse amplitude (kV/cm, single 1-ms pulse): 20, post-pulse incubation time: 24 h	-1.49	-1.98	-3.9	-4.78
electric pulse amplitude (kV/cm, single 1-ms pulse): 20, post-pulse incubation time: 60 min	-1.99	-2.02	-2.25	-3.13
electric pulse amplitude (kV/cm, single 1-ms pulse): 20, post-pulse incubation time: 160 min	-1.97	-2.19	-2.44	-3.57
electric pulse amplitude (kV/cm, single 1-ms pulse): 20, post-pulse incubation time: <=1 min	-1.26	-1.3	-1.57	-2.34
